{"source": "patent US20090209497A1", "about": "“METHOD OF TREATING LYMPHANGIOLEIOMYOMATOSIS (LAM)” (priority 2005, published 2009)", "assay": "Doxycycline therapy of a patient with LAM: clinical improvement (FEV1, O2 saturation, 6-min walk test)", "type": "in vivo, human", "details": "person with LAM, doxycycline 20 mg/day escalated up to 100 mg/day", "source_text": "FIGS. 1A-1B show successful treatment of LAM with doxycycline: monitoring therapeutic efficacy and measuring clinical improvement. […] Data points represent single measurements taken prior to or during doxycycline therapy. A person was diagnosed with LAM in 1975 after a partial nephrectomy for angiomyolipoma. Although stable for many years, their condition had deteriorated with an FEV1 as low as 0.48 liters (21 percent of predicted), and they were placed on the lung transplant list. […] Based on these elevated MMP levels, doxycycline was initiated at an initial dose of 20 mg/day. Dose escalation (up to 100 mg/day) was determined by monthly urinary MMP profiling (FIG. 1A) and how well the drug was tolerated. […] Telegraphic speech, which was present, resolved.", "data": [{"smiles": "C[C@H]1c2cccc(O)c2C(=O)C2=C(O)[C@]3(O)C(=O)C(C(N)=O)=C(O)[C@@H](N(C)C)[C@@H]3[C@@H](O)[C@@H]21", "note": "[doxycycline]", "values": [{"measurement": "FEV1, percent of predicted", "setting": "before treatment 21 percent of predicted", "result": "35% of predicted"}, {"measurement": "FEV1 (lung capacity)", "setting": "before treatment as low as 0.48 liters", "result": 0.91, "unit": "L"}]}]}
